Source: PubChem BioAssay (NCI)
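Following 48 hours of exposure in 96-well plates, responses at five concentrations were used to interpolate endpoints linearly. GI50: concentration for 50% inhibition of growth. The concentration for full growth arrest is given as TGI.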

Columns and labels:
Assay in all cases: NCI tumour cell line growth inhibition, 48 h
MOLT-4 leukemia = system: MOLT-4 leukemia
HS 578T breast = system: HS 578T breast
EKVX NSCLC = system: EKVX NSCLC
TK-10 renal = system: TK-10 renal
BT-549 breast = system: BT-549 breast
NCI-H460 lung = system: NCI-H460 lung
MDA-N = system: MDA-N
MALME-3M melanoma = system: MALME-3M melanoma
OVCAR-8 ovarian = system: OVCAR-8 ovarian
DMS 273 small cell lung = system: DMS 273 small cell lung
HOP-18 NSCLC = system: HOP-18 NSCLC
XF 498 CNS = system: XF 498 CNS

SMILES	TGI (MOLT-4 leukemia) [µM]	TGI (HS 578T breast) [µM]	TGI (EKVX NSCLC) [µM]	TGI (TK-10 renal) [µM]	TGI (BT-549 breast) [µM]	TGI (NCI-H460 lung) [µM]	TGI (MDA-N) [µM]	TGI (MALME-3M melanoma) [µM]	TGI (OVCAR-8 ovarian) [µM]	GI50 (HS 578T breast) [µM]	GI50 (BT-549 breast) [µM]	TGI (DMS 273 small cell lung) [µM]	TGI (HOP-18 NSCLC) [µM]	TGI (XF 498 CNS) [µM]
CC(C)NC(=O)OCCN=C1c2ccccc2C(Br)C(Br)c2ccccc21 (stereo unspecified)	14.9	31.4	59.2	21.6	29.3	32.4	28.9	17.2	24.8	–	–	–	–	–
O=[N+]([O-])C(/C=C(\Cl)[N+](=O)[O-])=C(Nc1ccccc1)Nc1ccccc1	6.12	27.7	27.4	25.4	20.7	30	18.7	21	21.6	–	–	–	–	–
CC[P+](c1ccccc1)(N(C)C)N(C)C	> 100	> 100	> 100	> 100	> 100	> 100	> 100	> 100	> 100	–	–	–	–	–
C=C(CCC(=O)N(CCc1c[nH]c2ccccc12)C(=O)c1ccccc1CSCC)C(=O)OC	> 100	> 100	> 100	> 100	> 100	> 100	> 100	> 100	> 100	–	–	–	–	–
NCC1OC(OC2C(N)CC(N)C(O)C2OC2OC(CO)C(O)C2O)C(N)C(O)C1O (stereo unspecified)	> 100	> 100	> 100	> 100	> 100	> 100	> 100	> 100	> 100	–	–	–	–	–
CC1=NN(c2cc(Cl)c(S(=O)(=O)O)cc2Cl)C2(C1)C(Cl)C(=O)N2c1nc2ccccc2s1 (stereo unspecified)	> 100	> 100	> 100	> 100	> 100	> 100	> 100	> 100	> 100	–	–	–	–	–
CCOC(=O)c1c(-c2ccc(Cl)cc2)c(C#N)c(=S)n(C2OC(COC(C)=O)C(OC(C)=O)C(OC(C)=O)C2OC(C)=O)c1C (stereo unspecified)	> 100	> 100	> 100	> 100	> 100	> 100	> 100	> 100	> 100	> 100	> 100	–	–	–
COC(=O)c1sc2c(Cl)c(Cl)sc2c1Cl	> 100	> 100	> 100	82	> 100	> 100	> 100	> 100	> 100	–	–	–	–	–
COc1cc2ccc(C(C)NCC#N)cc2cc1OC (stereo unspecified)	> 100	> 100	> 100	> 100	> 100	> 100	> 100	> 100	> 100	–	–	–	–	–
O=C(c1ccccc1)C1C(c2ccccc2[N+](=O)[O-])N1C1CCCCC1 (stereo unspecified)	7.79	49.3	30.8	7.4	32.3	24.8	19.7	29.4	3.97	–	–	–	–	–
COc1ccc(Nc2nc(N)c(C(=O)c3ccco3)s2)cc1	> 55.7	> 100	> 100	> 57.5	> 100	> 53.3	> 100	> 100	> 100	–	–	–	–	–
Cc1c(C)c2c(c(N)c1C#N)C(=O)N(NC(=S)Nc1ccccc1)C2=O	> 100	> 100	> 100	> 100	> 100	> 100	> 100	> 100	> 100	–	–	–	–	–
CCOC(=O)C(NC(=O)c1ccccc1)(Nc1ccc(S(=O)(=O)Nc2cc(C)on2)cc1)C(F)(F)F (stereo unspecified)	> 100	> 100	> 100	> 100	> 100	> 100	> 100	> 100	> 100	–	–	–	–	–
Cc1c(-c2ccccc2)oc(=O)c2ccccc12	60.1	43.1	60.9	60.7	39.2	> 100	59.3	52.8	93	–	–	–	–	–
CCOc1ccc(Nc2nc(N)nc(N)c2N=O)cc1	76.6	> 100	> 100	> 100	> 100	> 100	> 100	> 100	> 100	–	–	–	–	–
O=c1c2ccccc2n2nnc3ccc(NCCNCCO)c1c32	9.64	6.36	8.87	9.4	10.1	2.83	10.3	7.84	4.74	–	–	11.1	8.67	25.2
COc1cc(CNc2nc3c(NC(C)=O)cc(C(F)(F)F)cc3nc2-c2ccccc2)cc(OC)c1OC	> 100	–	> 100	> 100	–	–	–	> 100	> 100	–	–	> 100	–	> 100
COc1cc2c(cc1OC)C(C1CC1)ON(C)CC2 (stereo unspecified)	> 100	> 100	> 100	> 100	> 100	> 100	> 100	> 100	> 100	–	–	–	–	–
Nc1ncnc2c1ncn2C1C(O)C=C(CO)C1O (stereo unspecified)	–	–	–	–	–	> 625	–	> 625	> 625	–	–	> 625	> 625	< 0.0625
